# Data from article PMC10772362 (RSC Advances, 2024).
# “And” between values parts separate entries of the source, which are not always exact repeats. Equal entries are not always repeated.
# Key:
# [1] = test system: KB (human mouth epidermal carcinoma) cell line; assay: MTT cytotoxicity assay, KB cells; conditions: for IC50: Homo sapiens, KB, 72 h, read-out: IC50, KB; for Selective index, KB: ratio IC50 in Hek-293 to IC50 in KB
# [2] = test system: MCF7 (human breast adenocarcinoma) cell line; assay: MTT cytotoxicity assay, MCF7 cells; conditions: for IC50: Homo sapiens, MCF7, 72 h, read-out: IC50, MCF7; for Selective index, MCF7: ratio IC50 in Hek-293 to IC50 in MCF7
# [3] = test system: Hek-293 (human embryonic kidney 293) cell line; assay: MTT cytotoxicity assay, normal Hek-293 cells; conditions: HEK293, 72 h, read-out: IC50, Hek-293
# [4] = test system: A549 (human lung adenocarcinoma) cell line; assay: MTT cytotoxicity assay, A549 cells; conditions: for IC50: Homo sapiens, A549, 72 h, read-out: IC50, A549; for Selective index, A549: ratio IC50 in Hek-293 to IC50 in A549
# [5] = test system: HepG2 (human hepatocellular carcinoma) cell line; assay: MTT cytotoxicity assay, HepG2 cells; conditions: for IC50: Homo sapiens, HepG2, 72 h, read-out: IC50, HepG2; for Selective index, HepG2: ratio IC50 in Hek-293 to IC50 in HepG2
# [6] = test system: KB, A549, and HepG2 cell lines; assay: MTT cytotoxicity assay, summary over KB, A549 and HepG2; conditions: Homo sapiens, read-out: IC50 values ranging over KB, A549, and HepG2 cell lines
Compound,IC50 [1] [µM],"Selective index, KB [1]",IC50 [2] [µM],"Selective index, MCF7 [2]",IC50 [3] [µM],IC50 [4] [µM],"Selective index, A549 [4]",IC50 [5] [µM],"Selective index, HepG2 [5]","fold higher toxicity when compared with ellipticine, KB [1] [fold]","fold higher toxicity when compared with ellipticine, HepG2 [5] [fold]",IC50 [6] [µM]
"O=C1OCC2=C1C(c1ccsc1)C1=C(N2)C(=O)c2ccccc2C1=O (stereo not drawn) [Compound 13a, 11-(Thiophen-3-yl)-4,11-dihydrobenzo[g]furo[3,4-b]quinolin-1,5,10(3H)-trione]",1.43 ± 0.14,16.00,2.06 ± 0.66,11.12,22.9 ± 2.18,0.48 ± 0.03,47.90,1.43 ± 0.15,16.00,,,
"O=C1OCC2=C1C(c1ncccc1F)C1=C(N2)C(=O)c2ccccc2C1=O (stereo not drawn) [Compound 13l, 11-(3-Fluoropyridin-2-yl)-4,11-dihydrobenzo[g]furo[3,4-b]quinolin-1,5,10(3H)-trione]",4.69 ± 0.58,2.18,7.34 ± 0.94,1.39,10.2 ± 1.24,2.15 ± 0.25,4.74,5.52 ± 0.86,1.85,,,
"O=C1OCC2=C1C(c1ccco1)C1=C(N2)C(=O)c2ccccc2C1=O (stereo not drawn) [Compound 13c, 11-(Furan-2-yl)-4,11-dihydrobenzo[g]furo[3,4-b]quinolin-1,5,10(3H)-trione]",14.2 ± 1.23,1.02,12.2 ± 1.14,1.20,14.6 ± 1.35,3.06 ± 0.27,4.75,3.75 ± 0.69,3.88,,,
"O=C1OCC2=C1C(c1cc3ccccc3s1)C1=C(N2)C(=O)c2ccccc2C1=O (stereo not drawn) [Compound 13g, 11-(Benzo[b]thiophen-2-yl)-4,11-dihydrobenzo[g]furo[3,4-b]quinolin-1,5,10(3H)-trione]",9.94 ± 0.65,1.31,11.3 ± 1.78,1.16,13.1 ± 1.7,3.13 ± 0.2,4.18,12.7 ± 1.4,1.03,,,
"O=C1OCC2=C1C(c1coc3ccccc13)C1=C(N2)C(=O)c2ccccc2C1=O (stereo not drawn) [Compound 13f, 11-(Benzofuran-3-yl)-4,11-dihydrobenzo[g]furo[3,4-b]quinolin-1,5,10(3H)-trione]",1.1 ± 0.09,17.98,12.7 ± 1.2,1.56,19.7 ± 1.7,7.02 ± 0.91,2.81,1.3 ± 0.13,15.10,~1.8,~1.8,
"Cc1c(C2C3=C(COC3=O)NC3=C2C(=O)c2ccccc2C3=O)cnn1C (stereo not drawn) [Compound 13i, 11-(1,5-Dimethyl-1H-pyrazol-4-yl)-4,11-dihydrobenzo[g]furo[3,4-b]quinolin-1,5,10(3H)-trione]",10.7 ± 1.27,1.14,10.4 ± 0.8,1.18,12.3 ± 1.13,2.27 ± 0.22,5.40,7.8 ± 0.53,1.57,,,
"Cc1c2ccncc2c(C)c2c1[nH]c1ccccc12 [Ellipticine, ellipticine, reference compound]",1.95 ± 0.12,2.88,2.09 ± 0.16,2.68,5.6 ± 0.37,1.42 ± 0.08,3.94,2.11 ± 0.16,2.65,,,
"O=C1OCC2=C1C(c1csc3ccccc13)C1=C(N2)C(=O)c2ccccc2C1=O (stereo not drawn) [Compound 13e, 11-(Benzo[b]thiophen-3-yl)-4,11-dihydrobenzo[g]furo[3,4-b]quinolin-1,5,10(3H)-trione]",10.9 ± 1.4,1.02,13.1 ± 1.6,0.85,11.2 ± 0.85,9.94 ± 0.73,1.12,10.4 ± 1.18,1.07,,,
"O=C1OCC2=C1C(c1ccn[nH]1)C1=C(N2)C(=O)c2ccccc2C1=O (stereo not drawn) [Compound 13j, 11-(1H-pyrazol-5-yl)-4,11-dihydrobenzo[g]furo[3,4-b]quinolin-1,5,10(3H)-trione]",6 ± 0.63,0.63,3.24 ± 0.36,1.16,3.75 ± 0.69,5.43 ± 0.39,0.69,4.35 ± 0.57,0.86,,,
"COc1ncc(C(F)(F)F)cc1C1C2=C(COC2=O)NC2=C1C(=O)c1ccccc1C2=O (stereo not drawn) [Compound 13m, 11-(2-Methoxy-5-(trifluoromethyl)pyridin-3-yl)-4,11-dihydrobenzo[g]furo[3,4-b]quinolin-1,5,10(3H)-trione]",4.63 ± 1.04,3.61,7.26 ± 1.29,2.31,16.7 ± 1.94,2.83 ± 0.54,5.92,5.83 ± 0.86,2.87,,,
"O=C1OCC2=C1C(c1ccoc1)C1=C(N2)C(=O)c2ccccc2C1=O (stereo not drawn) [Compound 13b, 11-(Furan-3-yl)-4,11-dihydrobenzo[g]furo[3,4-b]quinolin-1,5,10(3H)-trione]",10.1 ± 1.17,1.37,12.6 ± 1.14,1.09,13.8 ± 1.41,3.09 ± 0.39,4.47,12.4 ± 1.29,1.12,,,
"O=C1OCC2=C1C(c1ccc(Br)o1)C1=C(N2)C(=O)c2ccccc2C1=O (stereo not drawn) [Compound 13d, 11-(5-Bromofuran-2-yl)-4,11-dihydrobenzo[g]furo[3,4-b]quinolin-1,5,10(3H)-trione]",2.81 ± 0.32,13.19,10.4 ± 1.29,3.58,37.1 ± 3.3,2.06 ± 0.22,18.00,0.3 ± 0.06,122 and 122.40,,,
"O=C1OCC2=C1C(c1cnc(Cl)s1)C1=C(N2)C(=O)c2ccccc2C1=O (stereo not drawn) [Compound 13h, 11-(2-Chlorothiazol-5-yl)-4,11-dihydrobenzo[g]furo[3,4-b]quinolin-1,5,10(3H)-trione]",1.12 ± 0.1,1.23,1.07 ± 0.1,1.29,1.38 ± 0.18,0.16 ± 0.02,8.55,0.81 ± 0.11,1.71,,,
"COc1cc(C2C3=C(COC3=O)NC3=C2C(=O)c2ccccc2C3=O)ccn1 (stereo not drawn) [Compound 13k, 11-(2-Methoxypyridin-4-yl)-4,11-dihydrobenzo[g]furo[3,4-b]quinolin-1,5,10(3H)-trione]",0.27 ± 0.24,9.30,1.34 ± 0.16,1.86,2.48 ± 0.32,0.27 ± 0.21,9.30,0.23 ± 0.02,10.81,,,0.23 to 0.27
